Measured values from US20240366555A1, “SELECTIVE MTORC2 INHIBITOR AND USES THEREOF” (ALIAD BIOPHARMA, priority 2021, published 2024).

Key:
mTORC2 = mTORC2 (Homo sapiens, UniProt P42345); assay: In vitro mTORC2 kinase assay (GST-Akt Ser473 phosphorylation, immunoblot); type: biochemical; parameters: mTORC was isolated by co-immunoprecipitation using Flag antibody; made in house; host or cells: HEK 293T transfected with Flag-mLST8; conditions: for reduction of GST-Akt Ser473 phosphorylation by mTORC2: FIG. 6a
Procedure: After introducing Flag-mLST8 into a human cell line 293T, mTORC was isolated by co-immunoprecipitation using Flag antibody. In the in vitro mTORC2 kinase assay, the activity of the isolated mTORC2 was evaluated by measuring phosphorylation of GST-Akt Ser473, which is a selective substrate of mTORC2 by immunoblot analysis. In the control group in which Flag-mLST8 was not introduced, GST-Akt Ser473 phosphorylation was almost not measured. […] Therefore, it was judged that GST-Akt Ser473 phosphorylation measured in the in vitro mTORC2 kinase assay was generated by mTORC2. In order to evaluate the inhibitory effect of norathyriol and athyriol on mTORC2 activity, norathyriol or athyriol was pretreated for 15 minutes, and then in vitro mTORC2 kinase assay was carried out.
More specifically, the HEK 293T cells were cultured in a DMEM culture medium in which 10% heat inactivated FBS+1× Glutamax was added. 8×10^5 HEK 293T cells were seeded in a 100 mm culture dish, and then they were cultured for 1 day. After mixing 42 μl Lipofectamine, 21 μl plus reagent, and 21 μg Flag-mLST8 plasmid DNA to 1 ml OPTI-MEM, it was shaken at a room temperature for 25 minutes to prepare a transfection DNA mixture. The transfection DNA mixture was slowly treated on the cells drop by drop, and after culturing for 5 hours, the culture medium was replaced with a new culture medium. After additional culturing for 48 hours, the cells were […] with CHAPS buffer (50 mM HEPES (pH7.4), 100 mM NaCl, 2 mM EDTA, 0.3% CHAPS, 10 mM sodium pyrophosphate, 10 mM sodium β-glycerophosphate, 1 mM PMSF, 1 μg/ml leupeptin, 1 μg/ml pepstatin A, 10 nM aprotinin, 1 mM Na3VO4, 10 nM calyculin A), and centrifuged at 4° C. at 13,000 rpm for 10 minutes to obtain the supernatant and acquire cell lysate. The protein concentration of the cell lysate was determined with BCA protein assay kit (Thermo Fisher Scientific). After adding anti-Flag M2 affinity gel (50% slurry, Sigma) of 30 μl to the cell lysate of 1 mg, it was shaken at 4° C. for 3 hours. After that, affinity gel was washed with CHAPS buffer 3 times and kinase buffer (50 mM HEPES (pH7.5), 2 mM DTT, 10 mM MnCl2, 10 mM MgCl2) for washing once. After adding kinase buffer [-substrate-ATP] […] After that, kinase buffer (50 mM HEPES (pH7.5), 2 mM DTT, 10 mM MgCl2, 10 mM MnCl2, 1 mM ATP, 500 ng GST-AKT, 10 nM calyculin A) of 10 μl was added and shaken at 30° C. for 45 minutes to progress a kinase reaction. […] Ser473 phosphorylation of GST-AKT, which is a substrate of mTORC2, was measured by performing immunoblot analysis using AKT antibody (#4691, Cell signaling) and phospho Ser473 AKT antibody (#4060, Cell signalig). In order to measure the mTORC2 activity inhibitory effect by the compound, both the kinase buffer [-substrate-ATP] and the kinase buffer included the compound.

[1] = tested on: mTORC2 signaling (FHRE dependent gene expression); assay: FHRE-luciferase reporter analysis in A549; type: cell-based, human; conditions: A549 cells, treated for 24 hours; FIG. 7d
Description: mTORC2 activates SGK3, and SGK3 phosphorylates Fox03a, allowing Fox03a to remain in the cytoplasm. When mTORC2 is inhibited, Fox03a is dephosphorylated and translocated to the nucleus, and in the nucleus, it binds to FHRE located in a gene promoter to induce gene expression. Therefore, the change in the intracellular location of Fox03a and FHRE dependent gene expression become indicators for evaluating mTORC2 activity. In order to evaluate the effect of norathyriol on the mTORC2 activity, norathyriol was treated to A549, and then expression of an FHRE-synthetic luciferase gene was investigated by luciferase reporter analysis.
Specifically, A549 cells of 2×10^5 were seeded in a 35 mm culture dish and cultured for 1 day, and then a 2.5 μg FHRE-Luc plasmid and a 0.1 μg renilla luciferase plasmid were introduced by a transfection method using Lipofectamine LTX reagent (Thermofisher). After 18 hours, norathyriol was treated for 24 hours. Luciferase assay was performed with Dual Luciferase Reporter Assay System (Promega) according to the manufacturer's instructions.

| Compound | inhibition at 20 µM (mTORC2; 20 μM, FIG. 6b) [%] | inhibition at 40 µM (mTORC2; 40 μM, FIG. 6b) [%] | reduction of GST-Akt Ser473 phosphorylation by mTORC2 (mTORC2; 5 μM) [%] | reduction of GST-Akt Ser473 phosphorylation by mTORC2 (mTORC2; 40 μM) [%] | IC50 (mTORC2; in vitro mTORC2 kinase assay) [µM] | expression of the FHRE-synthetic luciferase gene [1] |
| --- | --- | --- | --- | --- | --- | --- |
| COc1cc(O)c2c(=O)c3cc(O)c(O)cc3oc2c1 [athyriol, 1,6,7-Trihydroxy-3-methoxy-9H-xanthen-9-on] | 59 | 67 |  |  |  |  |
| O=c1c2cc(O)c(O)cc2oc2cc(O)cc(O)c12 [norathyriol, 1,3,6,7-tetrahydroxy-9H-xanthen-9-one] |  | 46 | ≥ 20 | 50 | 40 | increased by twice or more |
